The values below come from patent publication US20230159445A1, “STAT INHIBITORY COMPOUNDS AND COMPOSITIONS” (JANPIX LIMITED, priority 2020, published 2023).

The test system of one data set is glutathione (GSH). Description: Reactivity Profiling with Glutathione (GSH), half-life by HPLC. The following applies: 5 mM glutathione (GSH) in IMDM with 10% FBS.
What is called half-life is the time in which the quantity being followed falls by half. A high value points to slow decline. In the case of `O=C(O)c1ccc(N(Cc2cccc(N3CCCC3)c2)C(=O)CN(Cc2cnccc2C(F)(F)F)S(=O)(=O)c2c(F)c(F)c(F)c(F)c2F)c(OC2CC2)c1` [Compound 1159, 3-cyclopropoxy-4-(2-(N-((4-(trifluoromethyl)pyridin-3-yl)methyl)-(2,3,4,5,6-pentafluoro-phenyl)sulfonamido)-N-(3-(pyrrolidin-1-yl)benzyl)acetamido) benzoic acid], the half-life at 25 μM was in the range of 0.1 to 142 min.
Same read-out and setting: the result for `O=C(O)c1ccc(N(Cc2cccc(N3CCCC3)c2)C(=O)CN(Cc2ncccc2C(F)(F)F)S(=O)(=O)c2c(F)c(F)c(F)c(F)c2F)c(OC2CC2)c1` [Compound 1160, 3-cyclopropoxy-4-(2-(N-((3-(trifluoromethyl)pyridin-2-yl)methyl)-(2,3,4,5,6-pentafluoro-phenyl)sulfonamido)-N-(3-(pyrrolidin-1-yl)benzyl)acetamido) benzoic acid] reads 0.1 to 142 min.
On to `COc1cc(C(=O)OC(C)C)ccc1N(Cc1cc(C2CC2)cc(C(C)(C)C)c1)C(=O)CN(Cc1cnccc1C(F)(F)F)S(=O)(=O)c1c(F)c(F)c(F)c(F)c1F` [Compound 1172, isopropyl 4-(N-(3-(tert-butyl)-5-cyclopropylbenzyl)-2-(N-((4-(trifluoromethyl)pyridin-3-yl)methyl)-(2,3,4,5,6-pentafluoro-phenyl)sulfonamido)acetamido)-3-methoxybenzoate], for which the half-life at 25 μM lay within 554 to 100000 min.

The test system of the next data set is MV4-11 cells. Kind of data set: MV4-11 Cell Cytotoxicity Assay (CellTiter-Blue, 72 h). The following applies: Homo sapiens, MV4-11; MV-4-11 cells. Format: cell-based, human. How it is done:
In some embodiments, the potency of the STAT5 inhibitors are evaluated by an in vitro assay such as MV4-11 Cell Cytotoxicity Assay. […] 10,000 cells were plated per well in 96-well flat-bottom sterile culture plates with low-evaporation lids. After 24 h, inhibitors and a vehicle control (0.5% DMSO) were added and the cells were incubated for 72 h at 37° C. in 5% CO2. Inhibitors were examined in triplicate at a maximal concentration of 50 μM, followed by 1:2 dilutions in subsequent wells (25, 12.5, 6.25, 3.125, 1.5625, 0.78125, 0.390625, 0.195313 and 0.097656 μM). After 72 h, the wells were treated with CellTiter-Blue® (20 μL/well), and the plates were incubated using standard cell culture conditions for 1 hour. Fluorescence was measured at 560/590 nm.
(Resazurin is reduced to fluorescent resorufin, in cell work by metabolically active cells.)
The IC50 is the point on the concentration scale where inhibition reaches its midpoint. Consider `Cc1cc(C(=O)O)cc(C)c1N(Cc1cc(C2CC2)cc(C(C)(C)C)c1)C(=O)CN(Cc1ccc(F)cc1Cl)S(=O)(=O)c1c(F)c(F)c(F)c(F)c1F` [Compound 1187, 4-(N-(3-(tert-butyl)-5-cyclopropylbenzyl)-2-(N-(2-chloro-4-fluorobenzyl)-(2,3,4,5,6-pentafluorophenyl)sulfon-amido)acetamido)-3,5-dimethylbenzoic acid], for which the concentration for half-maximal inhibition (IC50) is 0.316 to 1 µM.
Still for that read-out and setting: the result for `Cc1cc(C(=O)O)cc(C)c1N(Cc1cc(C2CC2)cc(C2CC2)c1)C(=O)CN(Cc1cnccc1C(F)(F)F)S(=O)(=O)c1c(F)c(F)c(F)c(F)c1F` [Compound 1202, 4-(N-(3,5-dicyclopropylbenzyl)-2-(N-((4-(trifluoromethyl)pyridin-3-yl)methyl)-(2,3,4,5,6-pentafluoro-phenyl)sulfonamido)acetamido)-3,5-dimethylbenzoic acid] reads 0.316 to 1 µM; that for `Cc1cc(C(=O)O)cc(C)c1N(Cc1cc(C2CC2)cc(N2CCCC2)c1)C(=O)CN(Cc1c(F)cc(F)cc1F)S(=O)(=O)c1c(F)c(F)c(F)c(F)c1F` [Compound 1205, 4-(N-(3-cyclopropyl-5-(pyrrolidin-1-yl)benzyl)-2-(N-(2,4,6-trifluorobenzyl)-(2,3,4,5,6-pentafluoro-phenyl)sulfonamido)acetamido)-3,5-dimethylbenzoic acid], 0.316 to 1 µM; that for `Cc1cc(C(=O)O)cc(C)c1N(Cc1cc(C2CC2)cc(N2CCCC2)c1)C(=O)CN(Cc1ccc(F)cc1Cl)S(=O)(=O)c1c(F)c(F)c(F)c(F)c1F` [Compound 1206, 4-(2-(N-(2-chloro-4-fluorobenzyl)-(2,3,4,5,6-pentafluorophenyl)sulfon-amido)-N-(3-cyclopropyl-5-(pyrrolidin-1-yl)benzyl)acetamido)-3,5-dimethylbenzoic acid], 0.316 to 1 µM.
Same read-out and setting: the result for `CC(C)(C)c1cc(CN(C(=O)CN(Cc2ccc(F)cc2Cl)S(=O)(=O)c2c(F)c(F)c(F)c(F)c2F)c2ccc(C(=O)O)c(C(F)(F)F)c2)cc(C2CC2)c1` [Compound 1229, 4-(N-(3-(tert-butyl)-5-cyclopropylbenzyl)-2-(N-(2-chloro-4-fluorobenzyl)-(2,3,4,5,6-pentafluorophenyl)sulfon-amido)acetamido)-2-(trifluoromethyl) benzoic acid] reads 1 to 3.16 µM.

The same data set, now with this note: Homo sapiens; MV4-11 cells, 72 h, CellTiter-Blue; read-out: IC50- MV-4-11.
With `CC(C)(C)c1cc(N(C(=O)CN(Cc2ccc(Cl)cc2)S(=O)(=O)c2c(F)c(F)c(F)c(F)c2F)c2ccc(C(=O)O)cc2)cc(C(C)(C)C)c1` [Compound 2002, 4-(2-(N-(4-chlorobenzyl)-(2,3,4,5,6-pentafluorophenyl)sulfon-amido)-N-(3,5-di-tert-butylphenyl)acetamido)ben-zoic acid], the half-inhibitory concentration (IC50) lay in the range of 0.316 to 1 µM.
Consider `CC(C)(C)c1cc(CN(C(=O)CN(Cc2ccccc2)S(=O)(=O)c2c(F)c(F)c(F)c(F)c2F)c2ccc(C(=O)O)c(O)c2)cc(C(C)(C)C)c1` [Compound 2003, 4-(2-(N-benzyl-(2,3,4,5,6-pentafluorophenyl)sulfon-amido)-N-(3,5-di-tert-butylbenzyl)acetamido)-2-hydroxybenzoic acid], for which the half-maximal inhibitory concentration (IC50) is 1 to 3.16 µM.
On to `CC(C)(C)c1cc(C(=O)N(CCN(Cc2ccc(Cl)cc2)S(=O)(=O)c2c(F)c(F)c(F)c(F)c2F)c2ccc(C(=O)O)cc2)cc(C(C)(C)C)c1` [Compound 2005, 4-(3,5-di-tert-butyl-N-(2-(N-(4-chlorobenzyl)-(2,3,4,5,6-pentafluorophenyl)sulfon-amido)ethyl)benzamido)ben-zoic acid], for which the concentration for half-maximal inhibition (IC50) was 0.316 to 1 µM.
Same read-out and setting: the result for `O=C(O)c1ccc(N(Cc2ccc3c(c2)OCCO3)C(=O)CN(Cc2ccc(Cl)cc2)S(=O)(=O)c2c(F)c(F)c(F)c(F)c2F)cc1O` [Compound 2006, 4-(2-(N-(4-chlorobenzyl)-(2,3,4,5,6-pentafluorophenyl)sulfon-amido)-N-((2,3-dihydrobenzo[b][1,4]dioxin-6-yl)methyl)acetamido)-2-hydroxybenzoic acid] reads 3.16 to 100 µM; that for `CC(C)COc1cc(CN(C(=O)CN(Cc2ccc(Cl)cc2)S(=O)(=O)c2c(F)c(F)c(F)c(F)c2F)c2ccc(C(=O)O)c(O)c2)cc(OCC(C)C)c1` [Compound 2007, 4-(2-(N-(4-chlorobenzyl)-(2,3,4,5,6-pentafluorophenyl)sulfon-amido)-N-(3,5-diisobutoxybenzyl)acetami-do)-2-hydroxybenzoic acid], 3.16 to 100 µM; that for `CC(C)(C)c1cc(CN(C(=O)CN(C23CC(C2)C3)S(=O)(=O)c2c(F)c(F)c(F)c(F)c2F)c2ccc(C(=O)O)c(O)c2)cc(C2CC2)c1` [Compound 2008, 4-(2-(N-(bicyclo[1.1.1]pentan-1-yl)-(2,3,4,5,6-pentafluorophenyl)sulfon-amido)-N-(3-(tert-butyl)-5-cyclopropylbenzyl)acetami-do)-2-hydroxybenzoic acid], 3.16 to 100 µM.
As to `O=C(O)c1ccc(N(Cc2cc(OCC(F)(F)F)cc(OCC(F)(F)F)c2)C(=O)CN(Cc2ccc(Cl)cc2)S(=O)(=O)c2c(F)c(F)c(F)c(F)c2F)cc1O` [Compound 2009, 4-(N-(3,5-bis(2,2,2-trifluoroethoxy)benzyl)-2-(N-(4-chlorobenzyl)-(2,3,4,5,6-pentafluorophenyl)sulfon-amido)acetamido)-2-hydroxybenzoic acid], the IC50 fell in the range of 3.16 to 100 µM.
Turning to `O=C(O)c1ccc(N(Cc2cc(O)cc(O)c2)C(=O)CN(Cc2ccc(Cl)cc2)S(=O)(=O)c2c(F)c(F)c(F)c(F)c2F)cc1O` [Compound 2010, 4-(2-(N-(4-chlorobenzyl)-(2,3,4,5,6-pentafluorophenyl)sulfon-amido)-N-(3,5-dihydroxybenzyl)acetamido)-2-hydroxybenzoic acid], the half-inhibitory concentration (IC50) lay in the range of 3.16 to 100 µM.
Same read-out and setting: the result for `CC(C)(C)c1cccc(CN(C(=O)CN(C23CC(C2)C3)S(=O)(=O)c2c(F)c(F)c(F)c(F)c2F)c2ccc(C(=O)O)c(O)c2)c1` [Compound 2011, 4-(2-(N-(bicyclo[1.1.1]pentan-1-yl)-(2,3,4,5,6-pentafluorophenyl)sulfon-amido)-N-(3-(tert-butyl)benzyl)acetamido)-2-hydroxybenzoic acid] reads 1 to 3.16 µM; that for `O=C(O)c1ccc(N(Cc2cc(Cl)cc(Cl)c2)C(=O)CN(Cc2ccc(Cl)cc2)S(=O)(=O)c2c(F)c(F)c(F)c(F)c2F)cc1O` [Compound 2012, 4-(2-(N-(4-chlorobenzyl)-(2,3,4,5,6-pentafluorophenyl)sulfon-amido)-N-(3,5-dichlorobenzyl)acetamido)-2-hydroxybenzoic acid], 3.16 to 100 µM; that for `CC(C)(C)c1cc(N(C(=O)CN(Cc2ccc(Cl)cc2)S(=O)(=O)c2c(F)c(F)c(F)c(F)c2F)c2ccc(C(=O)O)c(O)c2)cc(C(C)(C)C)c1` [Compound 2014, 4-(2-(N-(4-chlorobenzyl)-(2,3,4,5,6-pentafluorophenyl)sulfon-amido)-N-(3,5-di-tert-butylphenyl)acetamido)-2-hydroxybenzoic acid], 1 to 3.16 µM.
On the same count and under the same terms, the result for `COc1cc(C(=O)O)ccc1N(C)C(=O)CN(Cc1ccccc1C(F)(F)F)S(=O)(=O)c1c(F)c(F)c(F)c(F)c1F` [Compound 2018, 3-methoxy-4-(N-methyl-2-(N-(2-(trifluoromethyl)benzyl)-(2,3,4,5,6-pentafluoro-phenyl)sulfonamido)acetami-do)benzoic acid] reads 1 to 3.16 µM.
`CC1(C)OC(=O)c2ccc(N(Cc3cc(C4CC4)cc(C(C)(C)C)c3)C(=O)CN(Cc3ccc(Cl)cc3)S(=O)(=O)c3c(F)c(F)c(F)c(F)c3F)cc2O1` [Compound 2022, N-(3-(tert-butyl)-5-cyclopropylbenzyl)-2-(N-(4-chlorobenzyl)-(2,3,4,5,6-pentafluorophenyl)sulfon-amido)-N-(2,2-dimethyl-4-oxo-4H-benzo[d][1,3]dioxin-7-yl)acetamide]: the IC50 fell in the range of 3.16 to 100 µM.

The data set is the same for the next values; noted with them: MV4-11 cells, 72 h, CellTiter-Blue; read-out: IC50- MV-4-11.
For the compound `O=C(O)c1ccc(N(Cc2cc(Cl)cc(Br)c2)C(=O)CN(Cc2ccc(Cl)cc2)S(=O)(=O)c2c(F)c(F)c(F)c(F)c2F)cc1O` [Compound 2013, 4-(N-(3-bromo-5-chlorobenzyl)-2-(N-(4-chlorobenzyl)-(2,3,4,5,6-pentafluorophenyl)sulfon-amido)acetamido)-2-hydroxybenzoic acid], the concentration for half-maximal inhibition (IC50) lay in the range of 3.16 to 100 µM.
